Source: ChEMBL document CHEMBL5724914, “Linking interpersonal differences in gut microbiota composition and drug biotransformation activity” (2024)

Key:
[1] = human gut metagenome, 24 h, 2 µM
[2] = (§1) The drug is tested on WLS-098 corresponding to human gut metagenome with ENA study accession number: PRJEB37062 and ENA sample accession number: ERS12561754 for biotransformation under anaerobic condition. The drug concentrations were measured over 9 timepoints collected between 0 and 24 hours of incubation by liquid-chromatography-coupled mass spectrometry (LC–MS); details: 2 µM
[3] = human gut metagenome, 24 h, 2 µM; remark: listed apart in the source
[4] = human gut metagenome, 24 h, 2 µM; remark: listed apart in the source
[5] = as §1, with “Z-028” for “WLS-098”, “mouse” for “human”, “ERS12561827” for “ERS12561754”; details: 2 µM
[6] = human gut metagenome, 24 h, 2 µM; remark: listed apart in the source
[7] = human gut metagenome, 24 h, 2 µM; remark: listed apart in the source
[8] = as §1, with “Z-026” for “WLS-098”, “to” for “to human gut”, “ERS12561825” for “ERS12561754”; details: 2 µM
[9] = as §1, with “Z-007” for “WLS-098”, “rat” for “human”, “ERS12561807” for “ERS12561754”; details: 2 µM
[10] = as §1, with “Z-016” for “WLS-098”, “mouse” for “human”, “ERS12561815” for “ERS12561754”; details: 2 µM
[11] = human gut metagenome, 24 h, 2 µM; remark: listed apart in the source
[12] = as §1, with “WLS-007” for “WLS-098”, “ERS12561742” for “ERS12561754”; details: 2 µM
[13] = human gut metagenome, 24 h, 2 µM; remark: listed apart in the source
[14] = as §1, with “Z-013” for “WLS-098”, “rabbit” for “human”, “ERS12561813” for “ERS12561754”; details: 2 µM
[15] = human gut metagenome, 24 h, 2 µM; remark: listed apart in the source
[16] = as §1, with “Z-001” for “WLS-098”, “mouse” for “human”, “ERS12561801” for “ERS12561754”; details: 2 µM
[17] = human gut metagenome, 24 h, 2 µM; remark: listed apart in the source
[18] = as §1, with “Z-021” for “WLS-098”, “to” for “to human gut”, “ERS12561820” for “ERS12561754”; details: 2 µM
[19] = as §1, with “Z-023” for “WLS-098”, “to” for “to human gut”, “ERS12561822” for “ERS12561754”; details: 2 µM
[20] = as §1, with “Z-022” for “WLS-098”, “mouse” for “human”, “ERS12561821” for “ERS12561754”; details: 2 µM
Further: call rule not given here.

SMILES: CC(C)N(CCC(C(N)=O)(c1ccccc1)c1ccccn1)C(C)C.O=P(O)(O)O (stereo not given) [DISOPYRAMIDE PHOSPHATE]
- Bacterial Biotransformation [1]: Compound NOT metabolized
- Bacterial Biotransformation [2]: Compound metabolized
- Bacterial Biotransformation [3]: Compound metabolized
- Bacterial Biotransformation [4]: Compound NOT metabolized
- Bacterial Biotransformation [5]: Compound NOT metabolized
- Bacterial Biotransformation [6]: Compound NOT metabolized
- Bacterial Biotransformation [7]: Compound NOT metabolized
- Bacterial Biotransformation [8]: Compound NOT metabolized
- Bacterial Biotransformation [9]: Compound NOT metabolized
- Bacterial Biotransformation [10]: Compound NOT metabolized
- Bacterial Biotransformation [11]: Compound NOT metabolized
- Bacterial Biotransformation [12]: Compound metabolized
- Bacterial Biotransformation [13]: Compound NOT metabolized
- Bacterial Biotransformation [14]: Compound NOT metabolized
- Bacterial Biotransformation [15]: Compound NOT metabolized
- Bacterial Biotransformation [16]: Compound NOT metabolized
- Bacterial Biotransformation [17]: Compound NOT metabolized
- Bacterial Biotransformation [18]: Compound NOT metabolized
- Bacterial Biotransformation [19]: Compound NOT metabolized
- Bacterial Biotransformation [20]: Compound NOT metabolized

SMILES: C[C@@H](CO)NC(=O)[C@@H]1C=C2c3cccc4[nH]cc(c34)C[C@H]2N(C)C1.O=C(O)/C=C\C(=O)O [ERGONOVINE MALEATE]
- Bacterial Biotransformation [1]: Compound metabolized
- Bacterial Biotransformation [2]: Compound NOT metabolized
- Bacterial Biotransformation [3]: Compound metabolized
- Bacterial Biotransformation [4]: Compound metabolized
- Bacterial Biotransformation [5]: Compound NOT metabolized
- Bacterial Biotransformation [6]: Compound metabolized
- Bacterial Biotransformation [7]: Compound metabolized
- Bacterial Biotransformation [8]: Compound NOT metabolized
- Bacterial Biotransformation [9]: Compound NOT metabolized
- Bacterial Biotransformation [10]: Compound NOT metabolized
- Bacterial Biotransformation [11]: Compound metabolized
- Bacterial Biotransformation [12]: Compound NOT metabolized
- Bacterial Biotransformation [13]: Compound metabolized
- Bacterial Biotransformation [14]: Compound NOT metabolized
- Bacterial Biotransformation [15]: Compound NOT metabolized
- Bacterial Biotransformation [16]: Compound NOT metabolized
- Bacterial Biotransformation [17]: Compound metabolized
- Bacterial Biotransformation [18]: Compound NOT metabolized
- Bacterial Biotransformation [19]: Compound NOT metabolized
- Bacterial Biotransformation [20]: Compound NOT metabolized

SMILES: CCN(CC)C(C)CN1c2ccccc2Sc2ccccc21 (stereo not given) [ETHOPROPAZINE]
- Bacterial Biotransformation [1]: Compound metabolized
- Bacterial Biotransformation [2]: Compound metabolized
- Bacterial Biotransformation [3]: Compound metabolized
- Bacterial Biotransformation [4]: Compound metabolized
- Bacterial Biotransformation [5]: Compound NOT metabolized
- Bacterial Biotransformation [6]: Compound metabolized
- Bacterial Biotransformation [7]: Compound metabolized
- Bacterial Biotransformation [8]: Compound NOT metabolized
- Bacterial Biotransformation [9]: Compound NOT metabolized
- Bacterial Biotransformation [10]: Compound NOT metabolized
- Bacterial Biotransformation [11]: Compound metabolized
- Bacterial Biotransformation [12]: Compound metabolized
- Bacterial Biotransformation [13]: Compound metabolized
- Bacterial Biotransformation [14]: Compound NOT metabolized
- Bacterial Biotransformation [15]: Compound metabolized
- Bacterial Biotransformation [16]: Compound metabolized
- Bacterial Biotransformation [17]: Compound metabolized
- Bacterial Biotransformation [18]: Compound metabolized
- Bacterial Biotransformation [19]: Compound metabolized
- Bacterial Biotransformation [20]: Compound NOT metabolized

SMILES: Cc1nc(-c2ccc(OCC(C)C)c(C#N)c2)sc1C(=O)O [FEBUXOSTAT]
- Bacterial Biotransformation [1]: Compound metabolized
- Bacterial Biotransformation [2]: Compound metabolized
- Bacterial Biotransformation [3]: Compound metabolized
- Bacterial Biotransformation [4]: Compound metabolized
- Bacterial Biotransformation [5]: Compound metabolized
- Bacterial Biotransformation [6]: Compound metabolized
- Bacterial Biotransformation [7]: Compound metabolized
- Bacterial Biotransformation [8]: Compound NOT metabolized
- Bacterial Biotransformation [9]: Compound NOT metabolized
- Bacterial Biotransformation [10]: Compound metabolized
- Bacterial Biotransformation [11]: Compound metabolized
- Bacterial Biotransformation [12]: Compound NOT metabolized
- Bacterial Biotransformation [13]: Compound metabolized
- Bacterial Biotransformation [14]: Compound NOT metabolized
- Bacterial Biotransformation [15]: Compound metabolized
- Bacterial Biotransformation [16]: Compound NOT metabolized
- Bacterial Biotransformation [17]: Compound metabolized
- Bacterial Biotransformation [18]: Compound metabolized
- Bacterial Biotransformation [19]: Compound metabolized
- Bacterial Biotransformation [20]: Compound metabolized
